This note sets out measurements from US20240238425A1, “HSD17B13 Inhibitors and/or Degraders” (Pfizer Inc., priority 2022, published 2024).

Counter-ions that a name gives are not always drawn.

The subject of the assay is HiBiT-HSD17β13 fusion protein (N-terminal HiBiT-tagged HSD17β13 isoform D) in Huh7 HiBiT-HSD17β13 OE cells. Kind of assay: Whole-cell Huh7-HSD17B13 HiBiT assay (degrader potency and maximal efficacy, luminescence readout). Type of assay: cell-based, human. The following applies: 24 hour incubation, geometric mean, * = geometric mean for all forms tested (parent and salt forms); for DC50: read-out: Huh7_HIBIT-HSD17β13_DC50 GMean DC50; for Huh7_HIBIT-HSD17β13_DC50 GMean Asymptote Maximum: max. concentration 1 μM. The method, boiled down: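 Luminescence from lytic HiBiT detection tracked residual HiBiT-HSD17β13 (isoform D, N-terminal tag) in a stable Huh7 overexpressing clone after 24 h compound treatment at 37° C, 11 concentrations up to 1 μM final. Percent effect used DMSO (zero) and parental Huh7 (high) wells; four-parameter fit gave 50% degradation; viability checked by CellTiter-Glo.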

Take `Cn1c(=O)n(C2CCC(=O)NC2=O)c2ccc(CN3CCOC4(C3)CN(c3ncc(-c5ccc6cn([C@H]7CC[C@H](CNC(=O)c8cc(F)c(O)c(F)c8F)CC7)nc6c5)cn3)C4)cc21` (mixture of isomers) [Example 78, N-{[(1r,4r)-4-(6-{2-[8-({1-[(3RS)-2,6-dioxopiperidin-3-yl]-3-methyl-2-oxo-2,3-dihydro-1H-benzimidazol-5-yl}methyl)-5-oxa-2,8-diazaspiro[3.5]nonan-2-yl]pyrimidin-5-yl}-2H-indazol-2-yl)cyclohexyl]methyl}-2,3,5-trifluoro-4-hydroxybenzamide, trifluoroacetate salt]: the DC50 is 0.47 nM and the “Huh7_HIBIT-HSD17β13_DC50 GMean Asymptote Maximum” value is recorded as 78%.
As for `Cn1c(=O)n(C2CCC(=O)NC2=O)c2ccc(CCN3CCOC4(C3)CN(c3ncc(-c5ccc6cn([C@H]7CC[C@H](CNC(=O)c8cc(F)c(O)c(F)c8F)CC7)nc6c5)cn3)C4)cc21` (mixture of isomers) [Example 79, N-{[(1r,4r)-4-(6-{2-[8-(2-{1-[(3RS)-2,6-dioxopiperidin-3-yl]-3-methyl-2-oxo-2,3-dihydro-1H-benzimidazol-5-yl}ethyl)-5-oxa-2,8-diazaspiro[3.5]nonan-2-yl]pyrimidin-5-yl}-2H-indazol-2-yl)cyclohexyl]methyl}-2,3,5-trifluoro-4-hydroxybenzamide, trifluoroacetate salt], the DC50 was found to be 0.31 nM and the “Huh7_HIBIT-HSD17β13_DC50 GMean Asymptote Maximum” value stood at 78%.
`Cn1c(=O)n(C2CCC(=O)NC2=O)c2ccc(C3CC4(CCN(c5ncc(-c6ccc7cn([C@H]8CC[C@H](CNC(=O)c9cc(F)c(O)c(F)c9F)CC8)nc7c6)cn5)CC4)C3)cc21` (mixture of isomers) [Example 80, N-{[(1r,4r)-4-{6-[2-(2-{1-[(3RS)-2,6-dioxopiperidin-3-yl]-3-methyl-2-oxo-2,3-dihydro-1H-benzimidazol-5-yl}-7-azaspiro[3.5]nonan-7-yl)pyrimidin-5-yl]-2H-indazol-2-yl}cyclohexyl]methyl}-2,3,5-trifluoro-4-hydroxybenzamide, trifluoroacetate salt]: the DC50 came to 1.4 nM and the “Huh7_HIBIT-HSD17β13_DC50 GMean Asymptote Maximum” value amounted to 84%.
On to `Cn1c(=O)n(C2CCC(=O)NC2=O)c2ccc(CCCN3CCN(c4cccc(-c5nc(C67CCC(CNC(=O)c8cc(F)c(O)c(F)c8F)(CC6)CC7)no5)c4)CC3)cc21` (racemic) [Example 81, N-{[4-(5-{3-[4-(3-{1-[(3RS)-2,6-dioxopiperidin-3-yl]-3-methyl-2-oxo-2,3-dihydro-1H-benzimidazol-5-yl}propyl)piperazin-1-yl]phenyl}-1,2,4-oxadiazol-3-yl)bicyclo[2.2.2]octan-1-yl]methyl}-2,3,5-trifluoro-4-hydroxybenzamide], for which the DC50 was found to be 0.86 nM and the “Huh7_HIBIT-HSD17β13_DC50 GMean Asymptote Maximum” value came out at 81%.
The corresponding values for `Cn1c(=O)n(C2CCC(=O)NC2=O)c2ccc(CN3CCN(c4ncc(-c5ccc6cn([C@]78CC[C@](CNC(=O)c9cc(F)c(O)c(F)c9F)(CC7)CC8)nc6c5)cn4)CC3)cc21` (mixture of isomers) [Example 83, N-{[4-(6-{2-[4-({1-[(3RS)-2,6-dioxopiperidin-3-yl]-3-methyl-2-oxo-2,3-dihydro-1H-benzimidazol-5-yl}methyl)piperazin-1-yl]pyrimidin-5-yl}-2H-indazol-2-yl)bicyclo[2.2.2]octan-1-yl]methyl}-2,3,5-trifluoro-4-hydroxybenzamide] are 0.5 nM and 81%.
Taken in the same sequence, the figures for `Cn1c(=O)n(C2CCC(=O)NC2=O)c2ccc(CN3CCN(c4ncc(-c5ccn6cc([C@]78CC[C@](CNC(=O)c9cc(F)c(O)c(F)c9F)(CC7)CC8)nc6c5)cn4)CC3)cc21` (mixture of isomers) [Example 84, N-{[4-(7-{2-[4-({1-[(3RS)-2,6-dioxopiperidin-3-yl]-3-methyl-2-oxo-2,3-dihydro-1H-benzimidazol-5-yl}methyl)piperazin-1-yl]pyrimidin-5-yl}imidazo[1,2-a]pyridin-2-yl)bicyclo[2.2.2]octan-1-yl]methyl}-2,3,5-trifluoro-4-hydroxybenzamide] were 0.59 nM and 83%.
As to `Cn1c(=O)n(C2CCC(=O)NC2=O)c2ccc(CCCN3C[C@@H]4CN(c5ccc6cn([C@H]7CC[C@H](CNC(=O)c8cc(F)c(O)c(F)c8F)CC7)nc6c5)C[C@@H]4C3)cc21` (mixture of isomers) [Example 85, N-{[(1r,4r)-4-{6-[(3aR,6aS)-5-(3-{1-[(3RS)-2,6-dioxopiperidin-3-yl]-3-methyl-2-oxo-2,3-dihydro-1H-benzimidazol-5-yl}propyl)hexahydropyrrolo[3,4-c]pyrrol-2(1H)-yl]-2H-indazol-2-yl}cyclohexyl]methyl}-2,3,5-trifluoro-4-hydroxybenzamide], the 50% degradation concentration (DC50) was 0.86 nM and the “Huh7_HIBIT-HSD17β13_DC50 GMean Asymptote Maximum” value amounted to 73%.
In the case of `Cn1c(=O)n(C2CCC(=O)NC2=O)c2ccc(CCCN3Cc4cnc(-c5ccc6cn([C@H]7CC[C@H](CNC(=O)c8cc(F)c(O)c(F)c8F)CC7)nc6c5)nc4C3)cc21` (mixture of isomers) [Example 86, N-{[(1r,4r)-4-{6-[6-(3-{1-[(3RS)-2,6-dioxopiperidin-3-yl]-3-methyl-2-oxo-2,3-dihydro-1H-benzimidazol-5-yl}propyl)-6,7-dihydro-5H-pyrrolo[3,4-d]pyrimidin-2-yl]-2H-indazol-2-yl}cyclohexyl]methyl}-2,3,5-trifluoro-4-hydroxybenzamide], the half-maximal degradation concentration (DC50) was 0.27 nM and the “Huh7_HIBIT-HSD17β13_DC50 GMean Asymptote Maximum” value amounted to 78%.
`Cn1c(=O)n(C2CCC(=O)NC2=O)c2ccc(CCCN3CCc4nc(-c5ccc6cn([C@H]7CC[C@H](CNC(=O)c8cc(F)c(O)c(F)c8F)CC7)nc6c5)ncc4C3)cc21` (mixture of isomers) [Example 87, N-{[(1r,4r)-4-{6-[6-(3-{1-[(3RS)-2,6-dioxopiperidin-3-yl]-3-methyl-2-oxo-2,3-dihydro-1H-benzimidazol-5-yl}propyl)-5,6,7,8-tetrahydropyrido[4,3-d]pyrimidin-2-yl]-2H-indazol-2-yl}cyclohexyl]methyl}-2,3,5-trifluoro-4-hydroxybenzamide]: the 50% degradation concentration (DC50) amounted to 0.5 nM and the “Huh7_HIBIT-HSD17β13_DC50 GMean Asymptote Maximum” value is 78%.
In the case of `Cn1c(=O)n(C2CCC(=O)NC2=O)c2ccc(CCCN3CCc4cc(-c5ccc6cn([C@H]7CC[C@H](CNC(=O)c8cc(F)c(O)c(F)c8F)CC7)nc6c5)ncc4C3)cc21` (mixture of isomers) [Example 88, N-{[(1r,4r)-4-{6-[7-(3-{1-[(3RS)-2,6-dioxopiperidin-3-yl]-3-methyl-2-oxo-2,3-dihydro-1H-benzimidazol-5-yl}propyl)-5,6,7,8-tetrahydro-2,7-naphthyridin-3-yl]-2H-indazol-2-yl}cyclohexyl]methyl}-2,3,5-trifluoro-4-hydroxybenzamide], the 50% degradation concentration (DC50) stood at 1.5 nM and the “Huh7_HIBIT-HSD17β13_DC50 GMean Asymptote Maximum” value amounted to 81%.
Take `Cn1c(=O)n(C2CCC(=O)NC2=O)c2ccc(CCCN3CCN(c4ccc(-c5ccc6cn([C@H]7CC[C@H](CNC(=O)c8cc(F)c(O)c(F)c8F)CC7)nc6c5)cn4)CC3)cc21` (mixture of isomers) [Example 92, N-{[(1r,4r)-4-(6-{6-[4-(3-{1-[(3RS)-2,6-dioxopiperidin-3-yl]-3-methyl-2-oxo-2,3-dihydro-1H-benzimidazol-5-yl}propyl)piperazin-1-yl]pyridin-3-yl}-2H-indazol-2-yl)cyclohexyl]methyl}-2,3,5-trifluoro-4-hydroxybenzamide]: the DC50 amounted to 0.4 nM and the “Huh7_HIBIT-HSD17β13_DC50 GMean Asymptote Maximum” value amounted to 87%.

Broadly, the DC50 is the concentration giving 50% degradation.
